Patent publication US20240180886A1, “INHIBITORS OF PROTEIN TYROSINE PHOSPHATASE, COMPOSITIONS, AND METHODS OF USE” (BRISTOL-MYERS SQUIBB COMPANY, priority 2022, published 2024)

Key:
B16-F10 cells = assay: Cell proliferation assay (CellTiter-Glo) in B16-F10 cells with IFN-gamma; assay type: cell-based; details: 120 h, mouse IFN-gamma 10 ng/mL, read-out: PTPN2 Prolif 5d B16F10 EC50
[1] = test system: phosphorylated STAT1 in B16-F10 cells; assay: Phospho-STAT1 (Tyr701) HTRF assay in B16-F10 cells with IFN-gamma; assay type: cell-based; details: mouse IFN-gamma 100 ng/mL, 1 hour, read-out: pSTAT1 HTRF B16F10 EC50
Protocol: B16-F10 cells (ATCC, Manassas, VA, #CRL-6475) were cultured in DMEM growth medium (ThermoFisher Scientific, Waltham, MA, #11995-040) supplemented with 10% heat-inactivated FBS (ThermoFisher Scientific, #16140-071) and 1% pen/strep (ThermoFisher Scientific, #15140-122). The cells were seeded into a white opaque 384-well tissue culture treated microplate (PerkinElmer, Waltham, MA, #6007688) at a density of 10,000 cells/well in 20 uL total volume and incubated overnight at 37 C and 5% CO2. 30 nL of compounds dissolved in DMSO were then transferred from a source plate into target wells with the Echo650 acoustic liquid handler (Beckman Coulter, Indianapolis, IN). Negative control wells received 30 nL of DMSO only (0.15% final concentration). Plates were returned to the incubator for 1 hour and then cells were treated with either 5 uL of growth medium or 5 uL of growth medium containing 500 ng/mL of recombinant mouse IFN-gamma protein (R&D Systems, Minneapolis, MN, #485-MI/CF, 100 ng/mL final concentration) using the Assist automated pipetting platform (INTEGRA Biosciences, Hudson, NH). Plates were incubated at 37 C for 1 hour and assayed for phosphorylated STAT1 protein levels with the phospho-STAT1 (Tyr701) HTRF kit (Cisbio, Bedford, MA, #63ADK026PEH) according to the manufacturer's instructions.

PTPN2 [2] = target: T1, PTPN2 (Homo sapiens (Human), UniProt P17706); assay: Phosphatase activity assay using DiFMUP as substrate; assay type: biochemical; details: PTPN2 0.15 nM, 10 mM DTT
Protocol: The PTPN2 biochemical assay was performed as follows, a 5× stock solution of human PTPN2 (SRP5075, MilliporeSigma, Burlington, MA) and a 1.25× stock solution of DiFMUP (D6567, ThermoFisher Scientific, Waltham, MA), were prepared in 1× reaction buffer consisting of 50 mM HEPES, pH 7.4, 1 mM EDTA, 150 mM NaCl, 0.2 mg/mL BSA, 100 U/mL catalase and 10 mM DTT. […] of the DiFMUP substrate solution, for a final concentration of […] DiFMUP substrate, was added to a Corning 3574 384-well, white, non-binding surface microtiter plate containing […] of serially diluted test compounds prepared in DMSO. The reactions were started with the addition of […] of the enzyme solution, for a final PTPN2 concentration of 0.15 nM, and monitored every 105 seconds for 60 minutes at λEX 360/λEM 460 in a BioTek Synergy HTX plate reader (Agilent Technologies, Santa Clara, CA) at room temperature. The initial linear portions of the progress curves were fit according to a linear equation to yield the slopes and converted to % inhibition based on a value of 100% activity for the no inhibitor treated control. IC50 values of each compound were obtained by fitting the % inhibition-compound concentration curves using Dotmatics software (Dotmatics, Bishops Stortford, Hertfordshire, England),
Target sequence in this assay (P17706 other isoform, or with tags, fused parts or gaps isoform P17706-2): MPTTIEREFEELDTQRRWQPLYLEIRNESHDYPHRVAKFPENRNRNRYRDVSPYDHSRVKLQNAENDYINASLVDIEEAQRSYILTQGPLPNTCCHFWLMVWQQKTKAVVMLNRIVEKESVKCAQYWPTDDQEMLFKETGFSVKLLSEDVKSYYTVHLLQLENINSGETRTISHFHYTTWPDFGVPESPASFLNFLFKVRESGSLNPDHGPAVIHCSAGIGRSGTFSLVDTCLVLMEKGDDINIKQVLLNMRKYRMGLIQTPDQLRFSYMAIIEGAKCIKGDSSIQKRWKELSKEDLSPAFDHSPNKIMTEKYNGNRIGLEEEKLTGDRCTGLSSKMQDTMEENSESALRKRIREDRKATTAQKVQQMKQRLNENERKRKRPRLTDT

PTPN2 [3] = target: T1, PTPN2; assay: PhosphoSens assay (PTPN2 BCHEM); assay type: biochemical; details: substrate AQT0264 20 μM, PTPN2 150 pM
Protocol: A PhosphoSens® kinase assay was performed as described by the vendor (AssayQuant Technologies, Marlborough, MA). Briefly, 1000× solutions of compounds were prepared in DMSO via serial dilution of the 10 mM DMSO stocks using 3-fold intervals in a 384-well reagent plate. 50 nL of the compound dilution series was then added to the corresponding wells of a 384-well assay plate. […] Finally, […] of 5× PTPN2 enzyme stock was added to each well of the assay plate for a final enzyme concentration of 150 pM. Reaction progress curves were collected by sampling fluorescence intensity at the excitation wavelength 360 nm (λex360) and emission wavelength 480 nm (λem480) every 71 seconds for one hour using a Synergy H4 plate reader (BioTek Instruments/Agilent Technologies, Winooski, VT) at room temperature.
Target sequence in this assay (P17706 whole entry): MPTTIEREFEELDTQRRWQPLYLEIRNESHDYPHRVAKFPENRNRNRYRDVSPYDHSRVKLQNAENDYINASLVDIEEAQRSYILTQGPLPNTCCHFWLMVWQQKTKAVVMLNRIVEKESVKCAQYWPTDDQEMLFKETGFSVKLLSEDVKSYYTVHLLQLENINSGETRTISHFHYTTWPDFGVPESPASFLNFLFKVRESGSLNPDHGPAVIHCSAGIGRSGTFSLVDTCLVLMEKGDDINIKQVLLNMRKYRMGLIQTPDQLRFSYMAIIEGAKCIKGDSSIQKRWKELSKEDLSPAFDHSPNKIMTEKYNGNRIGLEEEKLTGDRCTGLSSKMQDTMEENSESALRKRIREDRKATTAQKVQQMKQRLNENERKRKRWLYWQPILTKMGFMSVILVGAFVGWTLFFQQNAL

SMILES	EC50 (B16-F10 cells) [nM]	EC50 [1] [nM]	IC50 (PTPN2 [2]) [nM]	IC50 (PTPN2 [3]) [nM]
COc1cnc(NCc2cc(O)c(N3CC(=O)NS3(=O)=O)c(F)c2)cc1OC [EXAMPLE 26, 5-[4-[[(4,5-dimethoxy-2-pyridyl)amino]methyl]-2-fluoro-6-hydroxy-phenyl]-1,1-dioxo-1,2,5-thiadiazolidin-3-one]	740	340	10	10
Cc1cnc(NCc2cc(O)c(N3CC(=O)NS3(=O)=O)c(F)c2)cc1F [EXAMPLE 33, 5-[2-fluoro-4-[[(4-fluoro-5-methyl-2-pyridyl)amino]methyl]-6-hydroxy-phenyl]-1,1-dioxo-1,2,5-thiadiazolidin-3-one]	970	510	40	20
COc1cnc(NCc2cc(O)c(N3CC(=O)NS3(=O)=O)c(F)c2)c(OC)c1 [EXAMPLE 30, 5-[4-[[(3,5-dimethoxy-2-pyridyl)amino]methyl]-2-fluoro-6-hydroxy-phenyl]-1,1-dioxo-1,2,5-thiadiazolidin-3-one]	1720	1780	140	20
Cc1ccc(NCc2cc(O)c(N3CC(=O)NS3(=O)=O)c(F)c2)nc1C [EXAMPLE 19, 5-[4-[[(5,6-dimethyl-2-pyridyl)amino]methyl]-2-fluoro-6-hydroxy-phenyl]-1,1-dioxo-1,2,5-thiadiazolidin-3-one]	190	310	5	2
O=C1CN(c2c(O)cc(CNc3ccc(C4CC4)cn3)cc2F)S(=O)(=O)N1 [EXAMPLE 10, 5-[4-[[(5-cyclopropyl-2-pyridyl)amino]methyl]-2-fluoro-6-hydroxy-phenyl]-1,1-dioxo-1,2,5-thiadiazolidin-3-one]	610	570	40	3
COc1cccnc1NCc1cc(O)c(N2CC(=O)NS2(=O)=O)c(F)c1 [EXAMPLE 34, 5-[2-fluoro-6-hydroxy-4-[[(3-methoxy-2-pyridyl)amino]methyl]phenyl]-1,1-dioxo-1,2,5-thiadiazolidin-3-one]	> 15000	> 15000	10000	> 10000
N#Cc1ccnc(NCc2cc(O)c(N3CC(=O)NS3(=O)=O)c(F)c2)c1 [EXAMPLE 11, 2-[[3-fluoro-5-hydroxy-4-(1,1,4-trioxo-1,2,5-thiadiazolidin-2-yl)phenyl]methylamino]pyridine-4-carbonitrile]	3130	1990	100	40
O=C1CN(c2c(O)cc(CNc3ccc(-c4ccccc4)cn3)cc2F)S(=O)(=O)N1 [EXAMPLE 8, 5-[2-fluoro-6-hydroxy-4-[[(5-phenyl-2-pyridyl)amino]methyl]phenyl]-1,1-dioxo-1,2,5-thiadiazolidin-3-one]	6250	3930	950	50
Cc1cc(NCc2cc(O)c(N3CC(=O)NS3(=O)=O)c(F)c2)ncc1F [EXAMPLE 31, 5-[2-fluoro-4-[[(5-fluoro-4-methyl-2-pyridyl)amino]methyl]-6-hydroxy-phenyl]-1,1-dioxo-1,2,5-thiadiazolidin-3-one]	1530	1190	50	20
COc1ccc(NCc2cc(O)c(N3CC(=O)NS3(=O)=O)c(F)c2)nc1 [EXAMPLE 38, 5-[2-fluoro-6-hydroxy-4-[[(5-methoxy-2-pyridyl)amino]methyl]phenyl]-1,1-dioxo-1,2,5-thiadiazolidin-3-one]	850	540	60	10
O=C1CN(c2c(O)cc(CNc3cc(F)ccn3)cc2F)S(=O)(=O)N1 [EXAMPLE 16, 5-[2-fluoro-4-[[(4-fluoro-2-pyridyl)amino]methyl]-6-hydroxy-phenyl]-1,1-dioxo-1,2,5-thiadiazolidin-3-one]	1030	1240	200	20
